Experimental data as given in patent publication US20090221664A1, “PHARMACEUTICAL COMPOSITIONS OF MUSCARINIC RECEPTOR ANTAGONISTS” (priority 2005, published 2009).

System: carbachol precontracted guinea-pig isolated trachea
Assay: In-vitro functional assay: relaxation of carbachol precontracted guinea-pig isolated trachea by PDE-IV inhibitors with or without MRA preincubation
Conditions: for Potentiation of relaxant activity by preincubation with C No. 66: C No. 66 at 1 nM before contraction with carbachol
Description: Guinea Pigs (400-600 gm) were procured and trachea was removed under anesthesia (sodium pentobarbital, 300 mg/kg i.p) and immediately kept in ice-cold Krebs Henseleit buffer. Indomethacin (10 uM) was present throughout the KH buffer to prevent the formation of bronchoactive prostanoids.
The tissue of adherent fascia was removed and cut into strips of equal size (with approx. 4-5 tracheal rings in each strip). The epithelium was removed by careful rubbing, minimizing damage to the smooth muscle. […] Opposite ends of the cut rings were tied with the help of a thread. The tissue was mounted in isolated tissue baths containing 10 ml Krebs Henseleit buffer maintained at 37° C. and bubbled with carbogen, at a basal tension of 1 gm. The buffer was changed 4-5 times for about an hour. Equilibration of the tissue was done for 1 hr for stabilization. After 1 hr, the tissue was challenged with 1 μM carbachol. This was repeated after every 2-3 washes till two similar consecutive responses were obtained. At the end of stabilization, the tissues were incubated with suboptimal dose of MRA/Vehicle for 20 minutes prior to contraction of the tissues with 1 μM carbachol. The relaxant activity of the PDE-IV inhibitor [10^−9M to 10^−4 M] on the stabilized developed tension/response was subsequently assessed. The contractile response of tissues was recorded either on Powerlab data acquisition system or on Grass polygraph (Model 7). The relaxation was expressed as percentage of maximum carbachol response and EC25 was calculated as the concentration producing 25% of the maximum relaxation to 1 μM carbachol. The percent relaxation between the treated and control tissues were compared using non-parametric unpaired t-test. A p value of <0.05 is considered to be statistically significant.

[1] = PDE-IV inhibitor alone, concentration producing 25% of the maximum relaxation to 1 μM carbachol
[2] = relaxation by the PDE-IV inhibitor in the presence of C No. 66 (1 nM preincubation), 1 μM carbachol

Row | Compound | Potentiation of relaxant activity by preincubation with C No. 66 | - Log[EC25] [1] | EC25 [1] [µM] | - Log[EC25] [2]
1 | COc1ccc(C2=NO[C@]3(CCOC3)C2)cc1OC1CCCC1 [Compound No. 124aa, (S)-3-[3-(cyclopentyloxy)-4-methoxyphenyl]-1,7-dioxa-2-azaspiro[4.4]non-2-ene] | potentiated | 4.40 | 41.8 | 5.53
2 | O=C(Nc1c(Cl)cncc1Cl)c1ccc(OC(F)F)c(OCC2CC2)c1 [Roflumilast] | potentiated | 4.46 | 44.2 | 6.25
3 | COc1ccc(C2CNC(=O)C2)cc1OC1CCCC1 (centres unmarked) [Rolipram] | no significant potentiation | 5.25 | 7.6 | 
